# Values quoted from earlier work, collected in patent US11858967B2, “Compositions and methods for enhanced production of enduracidin in a genetically engineered strain of streptomyces fungicidicus” (Oregon State University, priority 2016, dated 2024).
# Like-named read-outs stand apart in the source and are kept apart here.
# Assays:
# [1] = mice, rabbits, dogs and monkeys
# [2] = in vivo
# MRSA = conditions: humans, i.m. 100 mg every 12 hours
# [3] = rat, in vivo
# [4] = system: Gram-positive organisms, including methicillin-resistant Staphylococcus aureus (MRSA) and vancomycin-resistant Enterococcus (VRE)
# [5] = system: S. aureus (100 strains, including 40% MRSA); conditions: 100 strains of S. aureus
# [6] = monkey, in vivo
substance,measurement,setting,value
Enduracidin,acute LD50,[1]; intraperitoneal,750 to 910 mg/kg
same,acute LD50,[1]; intravenous,30 to 125 mg/kg
same,acute LD50,"[1]; subcutaneous, intramuscular (i.m.) or oral",5000 to 10000 mg/kg
same,activity towards Clostridium spp.,Clostridium spp.,excellent activity
same,oral bioavailability,[2],lack of oral bioavailability
same,efficacy in chronic bone infections,MRSA,not chronic bone infections
same,efficacy in urinary tract and skin infections caused by MRSA,MRSA,highly effective
same,findings after long-term dosing,[3],localized inflammation at the injection site
same,type of antibacterial effect,[4],bactericidal
same,Minimum inhibitory concentrations (MICs),[4]; as low as,≥ 0.05 µg/mL
same,concentration at which no strain was able to survive exposure,[5],1 µg/mL
same,findings after long-term dosing,[6],localized inflammation at the injection site
